In paper PMC10269664, “Cinnamaldehyde Targets the LytTR DNA-Binding Domain of the Response Regulator AgrA to Attenuate Biofilm Formation of Listeria monocytogenes” (Microbiology Spectrum, 2023):
Changes are numbered by the printed parent chain.

Key:
[1] = target: T1, AgrA (Listeria monocytogenes, UniProt Q8YAR4, H29A); assay: biochemical
T1 construct: gene lmo0051

[2] = target: T2, AgrA (Listeria monocytogenes, UniProt Q8YAR4, G176A); assay: biochemical
T2 construct: gene lmo0051

[3] = target: T3, AgrA (Listeria monocytogenes, UniProt Q8YAR4, K177A); assay: biochemical
T3 construct: gene lmo0051

[4] = target: T4, AgrA (Listeria monocytogenes, UniProt Q8YAR4, D158A); assay: biochemical
T4 construct: gene lmo0051

[5] = target: T5, AgrA (Listeria monocytogenes, UniProt Q8YAR4, R179A); assay: biochemical
T5 construct: gene lmo0051

[6] = target: T6, AgrA (Listeria monocytogenes, UniProt Q8YAR4, N178A); assay: biochemical
T6 construct: gene lmo0051

[7] = target: T7, AgrA (Listeria monocytogenes, UniProt Q8YAR4); assay: microscale thermophoresis; format: binding; conditions: read-out: Mean Kd ± SD
T7 construct: gene lmo0051; entire protein, 242 residues, pET-28a His-tag, E. coli BL21(DE3), fluorescently labelled for MST
T7 sequence (Q8YAR4 entry or part of it): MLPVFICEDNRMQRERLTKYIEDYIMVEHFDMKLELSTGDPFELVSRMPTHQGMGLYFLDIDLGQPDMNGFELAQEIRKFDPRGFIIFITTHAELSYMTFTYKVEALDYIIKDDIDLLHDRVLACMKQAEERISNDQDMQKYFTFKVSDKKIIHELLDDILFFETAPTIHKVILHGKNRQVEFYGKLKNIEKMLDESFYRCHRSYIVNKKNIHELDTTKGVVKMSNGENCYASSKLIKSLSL
Source text: microscale thermophoresis on AgrA

[8] = target: T8, AgrA (Listeria monocytogenes, UniProt Q8YAR4, D159A); assay: biochemical
T8 construct: gene lmo0051

[9] = target: T9, AgrCFL (Listeria monocytogenes, UniProt Q8YAR5); conditions: 10 μM ATP; 37 °C
T9 construct: gene lmo0050
T9 sequence (Q8YAR5 entry or part of it): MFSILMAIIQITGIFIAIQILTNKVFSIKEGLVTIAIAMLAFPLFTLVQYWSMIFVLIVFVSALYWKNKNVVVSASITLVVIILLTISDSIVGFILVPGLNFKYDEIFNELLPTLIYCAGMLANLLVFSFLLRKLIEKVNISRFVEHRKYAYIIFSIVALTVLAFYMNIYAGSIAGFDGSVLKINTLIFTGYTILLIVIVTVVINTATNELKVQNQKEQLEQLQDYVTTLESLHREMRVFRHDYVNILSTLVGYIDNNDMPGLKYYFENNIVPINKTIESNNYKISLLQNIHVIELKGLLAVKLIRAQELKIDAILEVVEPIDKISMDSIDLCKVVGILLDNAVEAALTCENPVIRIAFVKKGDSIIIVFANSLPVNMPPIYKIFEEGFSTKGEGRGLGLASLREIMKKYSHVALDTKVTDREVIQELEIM

[10] = target: T10, AgrCCyto (Listeria monocytogenes, UniProt Q8YAR5); conditions: 10 μM ATP; 37 °C
T10 construct: gene lmo0050
T10 sequence (Q8YAR5 entry or part of it): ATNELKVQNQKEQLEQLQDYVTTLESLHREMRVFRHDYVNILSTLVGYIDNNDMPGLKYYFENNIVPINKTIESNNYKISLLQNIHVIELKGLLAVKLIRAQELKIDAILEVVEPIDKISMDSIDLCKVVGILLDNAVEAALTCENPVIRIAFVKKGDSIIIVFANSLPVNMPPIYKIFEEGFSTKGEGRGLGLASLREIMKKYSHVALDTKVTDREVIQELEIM

[11] = target: T11, AgrA N178A N178A (Listeria monocytogenes EGD-e) (UniProt Q8YAR4); assay: EMSA
T11 sequence: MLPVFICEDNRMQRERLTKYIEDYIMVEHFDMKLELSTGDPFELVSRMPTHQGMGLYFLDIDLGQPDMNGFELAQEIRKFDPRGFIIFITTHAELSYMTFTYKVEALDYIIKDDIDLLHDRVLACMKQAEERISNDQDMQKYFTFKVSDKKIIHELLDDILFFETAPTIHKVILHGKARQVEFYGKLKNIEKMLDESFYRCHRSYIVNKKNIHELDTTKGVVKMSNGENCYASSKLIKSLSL

[12] = target: T12, AgrA (Listeria monocytogenes EGD-e) (UniProt Q8YAR4); assay: EMSA
T12 sequence: T11 sequence with A178N

`O=CC=Cc1ccccc1` [cinnamaldehyde] showed a Kd [1] of 57.7 ± 6.47 µM, a Kd [2] of 53.2 ± 1.52 µM and a Kd [3] of 58.3 ± 4.42 µM. It also gave a Kd [4] of 62 ± 4.8 µM, a Kd [5] of 175 ± 17.8 µM and a Kd [6] of 138 ± 11.4 µM. It also gave a Kd [7] of 55.9 ± 2.38 µM and a Kd [8] of 59 ± 3.44 µM.
With `Nc1ncnc2c1ncn2[C@@H]1O[C@H](COP(=O)(O)OP(=O)(O)OP(=O)(O)O)[C@@H](O)[C@H]1O` [ATP] the “Kinase-Lumi chemiluminescence, residual ATP” value [9] was “AgrCFL was also subjected to the kinase assay, and similar results were observed” and the “Kinase-Lumi chemiluminescence, residual ATP” value [10] was “After incubation, the remaining ATP was reduced with increasing concentrations of AgrCCyto”.
With “CTAATTCACCTCCACTAATATTTTACAACGAATTTACCCATAATAACCAAAAATGTAATGAAATGTCCGATTCTTGTCATGAACGACCAAAAAAGAGCAGAATTGCCGATTTTTTGGATACATTTCAGAATATTCGAACGTGTAAAAAGGACTGTATAATAGGCTTAAAAACCCATATTAATATTTTATTTAAGTGAGTTTATTCATAAAAAAAACCAACTGCAAAAGAATGTTCACAGTTGGCTTTTCCATTTTA (double strand) [agr promoter P2]” the binding [11] was “binds more weakly” and the binding [12] was “binds”.
